Values of other authors as cited in patent US20220117956A1, “LSD FOR THE TREATMENT OF ALZHEIMER'S DISEASE” (Eleusis Therapeutics US, Inc., priority 2015, published 2022).

How the values were obtained:
[1] = formulated for immediate release; depending on dosage, tolerance, body weight and age
[2] = immediate release LSD dosed at 1 μg/kg

Question: Which results are given for `CCN(CC)C(=O)[C@@H]1C=C2c3cccc4[nH]cc(c34)C[C@H]2N(C)C1` [LSD, lysergic acid diethylamide]?
Answer: duration of LSD's effects [1]: 6 to 12 h; apparent plasma half-life [2]: 5.1 h; time of peak plasma concentration post-dose [2]: 3 h; peak plasma concentration ([2]; at 3 hours post-dose): 5 ng/mL
